Test results: patent US7279317B2, “Modulation of COP9 signalsome isopeptidase activity” (California Institute of Technology, priority 2001, dated 2007)

Assays:
CSN = target: T1, CSN (Schizosaccharomyces pombe, UniProt O94454); assay: Nedd8 conjugate cleavage (deneddylation of Pcu1/Cul1) by CSN in S. pombe cell extracts, immunoblot; format: biochemical; conditions: 30 min at 30° C.; for inhibition of Nedd8 conjugate cleavage activity of CSN (Nedd8 deconjugation from Cul1): 1 mM chelator
T1 construct: addition (+) of wild type lysate (which contained active CSN); endogenous in cells; host or cells: wild type S. pombe cell lysate
Method: On the basis of this analysis, it was hypothesized that CSN represents the founding member of a novel class of metalloproteases. To test this hypothesis, the effect of a divalent cation chelator on the Nedd8 conjugate cleavage activity associated with CSN was examined. Mutant csn5Δ S. pombe cell extract that contained neddylated Pcu1 was incubated either alone (−) or following addition (+) of wild type lysate (which contained active CSN) supplemented with either methanol vehicle (MeOH), 1 mM 1,10-phenanthroline (O-PT), or 1 mM, 10 mM, or 20 mM EDTA.
Reactions were incubated 30 min at 30° C. and terminated by addition of SDS-PAGE sample buffer, fractionated by SDS-PAGE, transferred to nitrocellulose, and immunoblotted with antibodies directed against S. pombe Cul1. Filter-bound antibodies were decorated with goat-anti-rabbit antibody conjugated to horse radish peroxidase and visualized with ECL reagents (Lyapina et al., supra, 2001).
The status of Nedd8 conjugation to Cul1 was determined by the mobility of Cul1 on the SDS-polyacrylamide gel. Nedd8-conjugated Cul1 migrated more slowly than unmodified Cul.

26S proteasome [1] = conditions: prior work; cited from earlier work
26S proteasome [2] = target: T2, 26S proteasome (Saccharomyces cerevisiae, UniProt P25043+P30656+P38624+P43588); assay: Deubiquitination and degradation of multiubiquitinated Sic1 by purified 26S proteasome, immunoblot; format: biochemical; conditions: 2.5 μM; in the presence of epoxomicin
T2 construct: made in house; host or cells: Saccharomyces cerevisiae

T1 sequence (O94454 whole entry): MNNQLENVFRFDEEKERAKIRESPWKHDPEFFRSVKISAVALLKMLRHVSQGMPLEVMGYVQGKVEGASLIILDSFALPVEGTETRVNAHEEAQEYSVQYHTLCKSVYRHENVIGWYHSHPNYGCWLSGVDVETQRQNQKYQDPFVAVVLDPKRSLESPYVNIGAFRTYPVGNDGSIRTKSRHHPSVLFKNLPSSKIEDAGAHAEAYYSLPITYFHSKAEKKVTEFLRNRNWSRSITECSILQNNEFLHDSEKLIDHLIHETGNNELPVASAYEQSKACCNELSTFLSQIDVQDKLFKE
T1 sequence (O94308 whole entry partner): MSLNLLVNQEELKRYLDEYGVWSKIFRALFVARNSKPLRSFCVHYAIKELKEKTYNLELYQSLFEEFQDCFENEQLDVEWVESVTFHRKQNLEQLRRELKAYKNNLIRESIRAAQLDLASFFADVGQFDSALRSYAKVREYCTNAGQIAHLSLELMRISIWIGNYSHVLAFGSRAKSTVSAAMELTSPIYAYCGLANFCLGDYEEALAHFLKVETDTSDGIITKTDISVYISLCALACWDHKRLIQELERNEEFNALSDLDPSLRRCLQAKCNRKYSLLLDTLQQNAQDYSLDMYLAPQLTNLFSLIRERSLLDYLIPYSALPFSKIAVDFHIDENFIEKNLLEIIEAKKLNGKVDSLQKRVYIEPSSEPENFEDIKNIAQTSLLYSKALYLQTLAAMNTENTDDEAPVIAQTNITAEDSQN
T1 sequence (Q9HFR0 whole entry partner): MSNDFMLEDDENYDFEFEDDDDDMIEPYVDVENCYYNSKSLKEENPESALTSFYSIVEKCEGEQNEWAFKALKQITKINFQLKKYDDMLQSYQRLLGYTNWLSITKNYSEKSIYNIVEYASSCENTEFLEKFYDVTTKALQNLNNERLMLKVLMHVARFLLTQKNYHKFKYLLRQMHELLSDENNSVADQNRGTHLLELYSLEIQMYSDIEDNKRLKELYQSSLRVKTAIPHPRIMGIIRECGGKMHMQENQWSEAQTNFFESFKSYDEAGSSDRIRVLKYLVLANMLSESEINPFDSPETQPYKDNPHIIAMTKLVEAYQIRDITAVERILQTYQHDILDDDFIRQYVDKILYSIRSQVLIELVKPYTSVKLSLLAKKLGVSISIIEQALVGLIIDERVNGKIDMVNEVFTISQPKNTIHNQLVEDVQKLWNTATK
T1 sequence (O13895 whole entry partner): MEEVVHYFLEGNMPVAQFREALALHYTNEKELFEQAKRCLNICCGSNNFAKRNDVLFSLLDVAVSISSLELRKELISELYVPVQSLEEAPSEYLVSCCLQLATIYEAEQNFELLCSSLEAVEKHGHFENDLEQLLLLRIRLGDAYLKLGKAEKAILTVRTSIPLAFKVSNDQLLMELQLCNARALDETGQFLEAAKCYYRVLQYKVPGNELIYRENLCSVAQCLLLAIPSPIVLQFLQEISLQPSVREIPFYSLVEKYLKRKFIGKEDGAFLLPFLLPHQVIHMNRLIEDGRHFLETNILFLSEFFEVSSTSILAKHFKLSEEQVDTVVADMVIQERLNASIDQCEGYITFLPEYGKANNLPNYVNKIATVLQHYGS
T1 sequence (Q8WZK4 whole entry partner): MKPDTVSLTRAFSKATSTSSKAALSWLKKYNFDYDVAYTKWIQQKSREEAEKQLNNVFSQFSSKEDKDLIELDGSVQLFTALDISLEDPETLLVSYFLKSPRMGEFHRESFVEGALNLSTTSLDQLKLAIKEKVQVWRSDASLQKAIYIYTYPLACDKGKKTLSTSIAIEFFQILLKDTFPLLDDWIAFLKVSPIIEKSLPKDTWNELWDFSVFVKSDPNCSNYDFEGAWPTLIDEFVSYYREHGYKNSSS
T1 sequence (Q9UUJ7 whole entry partner): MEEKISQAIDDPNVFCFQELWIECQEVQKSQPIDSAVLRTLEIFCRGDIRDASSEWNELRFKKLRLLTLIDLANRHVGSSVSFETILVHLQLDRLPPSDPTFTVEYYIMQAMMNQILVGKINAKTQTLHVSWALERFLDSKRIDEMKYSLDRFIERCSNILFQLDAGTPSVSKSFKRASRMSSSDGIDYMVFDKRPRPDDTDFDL

inhibition of Nedd8 conjugate cleavage activity of CSN (Nedd8 deconjugation from Cul1) (CSN)	inhibition of Nedd8 deconjugation from Cul1 by CSN (CSN; 10 mM)	inhibition of Nedd8 deconjugation from Cul1 by CSN (CSN; 20 mM)	Compound	sensitivity of 26S proteasome-associated isopeptidase activity (26S proteasome [1])	sensitivity of Sic1 deubiquitination by 26S proteasome to the inhibitor (26S proteasome [2])
completely inhibited	–	–	c1cnc2c(c1)ccc1cccnc12 [1,10-phenanthroline]	sensitive	–
No inhibition	less than 50%	almost complete inhibition	O=C(O)CN(CCN(CC(=O)O)CC(=O)O)CC(=O)O [EDTA]	–	–
–	–	–	ubiquitin vinyl sulfone	–	not sensitive
